# According to patent US7799809B2, “Carboxamide compounds and their use as calpain inhibitors” (Abbott GmbH & Co. KG, priority 2006, dated 2010):
# How the values were obtained:
# Type in all cases: biochemical
# [1] = target: T1, cathepsin K (Homo sapiens, UniProt P43235); assay: Cathepsin K enzyme inhibition in vitro (kinetic fluorescence assay); conditions: cathepsin K activated from recombinant human procathepsin K vs calpain I
# T1 construct: purchased Calbiochem 342001; host or cells: E. coli
# T1 sequence (P43235 115-329): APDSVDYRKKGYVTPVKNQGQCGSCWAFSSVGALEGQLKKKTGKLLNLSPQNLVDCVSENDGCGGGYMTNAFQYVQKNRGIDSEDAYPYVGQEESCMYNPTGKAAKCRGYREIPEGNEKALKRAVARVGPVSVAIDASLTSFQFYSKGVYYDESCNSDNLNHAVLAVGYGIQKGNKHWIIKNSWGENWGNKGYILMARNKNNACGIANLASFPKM
# Description: (§1) The following solutions and buffers were employed: • HBS (for 40 ml): 800 μl M HEPES; 2.16 ml 100 mM KCl; 4.8 ml 1M NaCl; 3.59 ml 5% glucose; 60 μl μM MgSO4; 400 μl 100 mM Na pyruvate, 28.19 ml water; pH 7.2-7.5. • lysis buffer (for 20 ml): 400 μl M Tris pH 8.2; 2.74 ml 1M NaCl; 520 μl 0.5M EDTA; 2 ml 10% triton X-100; 0.8 ml (=1:25) CompletePlus (1 tablet/2 ml H2O); 200 μl 100 mM Pefabloc; 13.34 ml water, pH 8.2. • TBST (10×) (for 1 l): 100 mM Tris (12.1 g); 1.5M NaCl (87 g); 1% Tween 20 (10 g), adjusted to pH 8. I Enzyme Inhibition In Vitro: • Testing for blockade of the corresponding enzymic activities was carried out by means of kinetic fluorescence assays (excitation 390 nm, emission 460 nm). • Apparent Ki values were calculated from the experimentally determined IC50 values by the Cheng-Prussoff relation assuming a reversible competitive enzyme inhibition. The Km values of the substrates used under the assay conditions indicated above were: 90 μM (Z-Phe-Arg-AMC, cathepsin B), 10 μM (Z-Gly-Pro-Arg-AMC, cathepsin K), 2 μM (Z-Phe-Arg-AMC, cathepsin L), and 30 μM (Z-Val-Val-Arg-AMC, cathepsin S). • The indicated Ki values are averages of the inhibition constants calculated on the basis of 2 to 4 independent dose-effect plots.
# (§2) The following assays were used: • 1. Calpain I: • 20 nM calpain-I—isolated from human erythrocytes (Calbiochem #208713), 100 μM Suc-Leu-Tyr-AMC (Bachem #1-1355) as substrate in buffer with 62 mM imidazole, 0.3 mM CaCl2, 0.10% CHAPS, 0.05% BSA, 1 mM DTT at pH 7.3 and room temperature. • 2. Cathepsin B: • 0.25 nM cathepsin B—isolated from human liver (Calbiochem #219362), 100 μM Z-Phe-Arg-AMC (Bachem #I-1160) as substrate 50 mM MES, 2 mM EDTA, 0.05% Brij 35, 2.5 mM L-cysteine, pH 6.0, room temperature. • 3. Cathepsin K: • 3 nM cathepsin K—activated from recombinant human procathepsin K from E. coli (Calbiochem #342001), 10 μM Z-Gly-Pro-Arg-AMC (Biomol #P-142) as substrate in 50 mM MES, 2 mM EDTA, 0.05% Brij 35, 2.5 mM L-cysteine, pH 6.0, room temperature. • 4. Cathepsin L: • 1 nM cathepsin L—isolated from human liver (Calbiochem #219402), 2 μM Z-Phe-Arg-AMC (Bachem #1-1160) as substrate in 50 mM MES, 2 mM EDTA, 0.05% Brij 35, 2.5 mM L-cysteine, pH 6.0, room temperature. • 5. Cathepsin S: • 0.5 nM recombinant human cathepsin S from E. coli (Calbiochem #219343), 20 μM Z-Val-Val-Arg-AMC (Bachem #1-1540) as substrate in 50 mM MES, 2 mM EDTA, 0.05% Brij 35, 2.5 mM L-cysteine, pH 6.0, room temperature. • The results of the in vitro determination are indicated in Table 1. The following abbreviations are used in Table 1: • The “Calpain activity” column, ++ stands for a calpain Ki (Ki(calpain)) of ≦40 nM and + means: 40 nM<Ki(Calpain)≦100 nM. • The “Sel. cat. B” column indicates the Ki(cathepsin B)/Ki(calpain) ratio. In this connection, ++ means a Ki(cathepsin B)/Ki(calpain) ratio of ≧30 and + means 10≦Ki(cathepsin B)/Ki(calpain)<30. • The “Sel. cat. K” column indicates the Ki(cathepsin K)/Ki(calpain) ratio. In this connection, ++ means a Ki(cathepsin K)/Ki(calpain) ratio of ≧30 and + means 10≦Ki(cathepsin K)/Ki(calpain)<30. • The “Sel. cat. L” column indicates the Ki(cathepsin L)/Ki(calpain) ratio. In this connection, ++ means a Ki(cathepsin L)/Ki(calpain) ratio of ≧50 and + means 30≦Ki(cathepsin L)/Ki(calpain)<50. • The “Sel. cat. S” column indicates the Ki(cathepsin S)/Ki(calpain) ratio. In this connection, ++ means a Ki(cathepsin S)/Ki(calpain) ratio of ≧100 and + means 50≦Ki(cathepsin S)/Ki(calpain)<100.
# [2] = target: T2, cathepsin B (Homo sapiens, UniProt P07858); assay: Cathepsin B enzyme inhibition in vitro (kinetic fluorescence assay); conditions: cathepsin B isolated from human liver vs calpain I
# T2 construct: cathepsin B—isolated from human liver (Calbiochem #219362); purchased Calbiochem 219362; host or cells: human liver (tissue-derived)
# Description: as §1, §2
# [3] = target: T3, cathepsin L (Homo sapiens, UniProt P07711); assay: Cathepsin L enzyme inhibition in vitro (kinetic fluorescence assay); conditions: cathepsin L isolated from human liver vs calpain I
# T3 construct: cathepsin L—isolated from human liver (Calbiochem #219402); purchased Calbiochem 219402; host or cells: human liver (tissue-derived)
# T3 sequence (P07711 114-333): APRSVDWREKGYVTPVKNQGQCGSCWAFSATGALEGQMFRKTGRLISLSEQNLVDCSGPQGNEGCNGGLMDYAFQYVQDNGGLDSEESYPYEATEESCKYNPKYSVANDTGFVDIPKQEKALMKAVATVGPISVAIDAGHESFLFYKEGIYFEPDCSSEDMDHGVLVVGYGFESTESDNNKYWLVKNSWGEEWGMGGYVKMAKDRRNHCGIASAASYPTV
# Method in brief: (§3)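 cat B 0.25 nM + Z-Phe-Arg-AMC 100 μM; cat L 1 nM + Z-Phe-Arg-AMC 2 μM; cat S 0.5 nM (E. coli-expressed) + Z-Val-Val-Arg-AMC 20 μM. 50 mM MES pH 6.0, 2.5 mM L-Cys, RT. Ex 390/em 460, kinetic; Ki app = Cheng-Prusoff from IC50, mean of 2–4 curves.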
# [4] = target: T4, cathepsin S (Homo sapiens, UniProt P25774); assay: Cathepsin S enzyme inhibition in vitro (kinetic fluorescence assay); conditions: recombinant human cathepsin S vs calpain I
# T4 construct: purchased Calbiochem 219343; host or cells: E. coli
# T4 sequence (P25774 115-331): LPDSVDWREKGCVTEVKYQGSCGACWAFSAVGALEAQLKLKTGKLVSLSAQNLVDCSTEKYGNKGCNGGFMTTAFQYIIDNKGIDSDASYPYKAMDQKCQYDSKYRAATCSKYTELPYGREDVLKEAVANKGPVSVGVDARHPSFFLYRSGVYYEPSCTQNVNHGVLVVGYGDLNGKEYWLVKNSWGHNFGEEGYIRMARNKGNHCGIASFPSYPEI
# Method in brief: as §3
SMILES,Sel cat. K: Ki(cathepsin K)/Ki(calpain) ratio [1],Sel cat. B: Ki(cathepsin B)/Ki(calpain) ratio [2],Sel cat. L: Ki(cathepsin L)/Ki(calpain) ratio [3],Sel cat. S: Ki(cathepsin S)/Ki(calpain) ratio [4]
"N#Cc1cnc(-n2ccc(-c3ccccc3)n2)c(C(=O)NC(Cc2ccccc2)C(=O)C(N)=O)c1 (stereo not shown) [Example 82, N-(3-Amino-1-benzyl-2,3-dioxopropyl)-5-cyano-2-(3-phenyl-1H-pyrazol-1-yl)nicotinamide]",++ (++ means a Ki(cathepsin K)/Ki(calpain) ratio of ≧30),++ (++ means a Ki(cathepsin B)/Ki(calpain) ratio of ≧30),++ (++ means a Ki(cathepsin L)/Ki(calpain) ratio of ≧50),
"CN1CCN(c2ccc(-c3ccn(-c4ncccc4C(=O)NC(Cc4ccccc4)C(=O)C(N)=O)n3)cc2)CC1 (stereo not shown) [Example 68, N-(3-Amino-1-benzyl-2,3-dioxopropyl)-2-{3-[4-(4-methylpiperazin-1-yl)phenyl]-1H-pyrazol-1-yl}nicotinamide]",+ (+ means 10≦Ki(cathepsin K)/Ki(calpain)<30),,,++ (++ means a Ki(cathepsin S)/Ki(calpain) ratio of ≧100)
"COc1ccc(OC)c(-c2ccn(-c3ncccc3C(=O)NC(Cc3ccccc3)C(=O)C(N)=O)n2)c1 (stereo not shown) [Example 151, N-[3-Amino-2,3-dioxo-1-(phenylmethyl)propyl]-2-{3-[2,5-bis(methyloxy)phenyl]-1H-pyrazol-1-yl}pyridine-3-carboxamide]",++ (++ means a Ki(cathepsin K)/Ki(calpain) ratio of ≧30),++ (++ means a Ki(cathepsin B)/Ki(calpain) ratio of ≧30),++ (++ means a Ki(cathepsin L)/Ki(calpain) ratio of ≧50),
"Cl.NC(=O)C(=O)C(Cc1ccccc1)NC(=O)c1cccnc1-n1ccc(-c2ccc(N3CCOCC3)cc2)n1 (stereo not shown) [Example 29, N-(3-Amino-1-benzyl-2,3-dioxopropyl)-2-[3-(4-morpholin-4-ylphenyl)-1H-pyrazol-1-yl]nicotinamide hydrochloride]",+ (+ means 10≦Ki(cathepsin K)/Ki(calpain)<30),,++ (++ means a Ki(cathepsin L)/Ki(calpain) ratio of ≧50),++ (++ means a Ki(cathepsin S)/Ki(calpain) ratio of ≧100)
"NC(=O)C(=O)C(Cc1ccccc1)NC(=O)c1cccnc1-n1ccc(-c2cccc(N3CCCC3)c2)n1 (stereo not shown) [Example 74, N-(3-Amino-1-benzyl-2,3-dioxopropyl)-2-[3-(3-pyrrolidin-1-ylphenyl)-1H-pyrazol-1-yl]nicotinamide]",++ (++ means a Ki(cathepsin K)/Ki(calpain) ratio of ≧30),++ (++ means a Ki(cathepsin B)/Ki(calpain) ratio of ≧30),,++ (++ means a Ki(cathepsin S)/Ki(calpain) ratio of ≧100)
"NC(=O)C(=O)C(Cc1ccccc1)NC(=O)c1cccnc1-n1ccc(-c2ccc3c(c2)CCO3)n1 (stereo not shown) [Example 75, N-(3-Amino-1-benzyl-2,3-dioxopropyl)-2-[3-(2,3-dihydrobenzo[b]furan-5-yl)-1H-pyrazol-1-yl]nicotinamide]",+ (+ means 10≦Ki(cathepsin K)/Ki(calpain)<30),,++ (++ means a Ki(cathepsin L)/Ki(calpain) ratio of ≧50),++ (++ means a Ki(cathepsin S)/Ki(calpain) ratio of ≧100)
"NC(=O)C(=O)C(CC1CCCCC1)NC(=O)c1cccnc1-n1ccc(-c2ccccc2)n1 (stereo not shown) [Example 66, N-[3-Amino-1-(cyclohexylmethyl)-2,3-dioxopropyl]-2-(3-phenyl-1H-pyrazol-1-yl)nicotinamide]",+ (+ means 10≦Ki(cathepsin K)/Ki(calpain)<30),,+ (+ means 30≦Ki(cathepsin L)/Ki(calpain)<50),++ (++ means a Ki(cathepsin S)/Ki(calpain) ratio of ≧100)
"NC(=O)C(=O)C(Cc1ccccc1)NC(=O)c1cccnc1-n1ccc(C2CCCCC2)n1 (stereo not shown) [Example 192, N-[3-Amino-2,3-dioxo-1-(phenylmethyl)propyl]-2-(3-cyclohexyl-1H-pyrazol-1-yl)pyridine-3-carboxamide]",+ (+ means 10≦Ki(cathepsin K)/Ki(calpain)<30),,++ (++ means a Ki(cathepsin L)/Ki(calpain) ratio of ≧50),++ (++ means a Ki(cathepsin S)/Ki(calpain) ratio of ≧100)
"N#Cc1cnc(-n2ccc(-c3ccccc3F)n2)c(C(=O)NC(Cc2ccccc2)C(=O)C(N)=O)c1 (stereo not shown) [Example 188, N-[3-Amino-2,3-dioxo-1-(phenylmethyl)propyl]-5-cyano-2-[3-(2-fluorophenyl)-1H-pyrazol-1-yl]pyridine-3-carboxamide]",++ (++ means a Ki(cathepsin K)/Ki(calpain) ratio of ≧30),,++ (++ means a Ki(cathepsin L)/Ki(calpain) ratio of ≧50),
"NC(=O)C(=O)C(Cc1ccc(Br)cc1)NC(=O)c1cccnc1-n1ccc(-c2ccccc2)n1 (stereo not shown) [Example 122, N-{3-Amino-1-[(4-bromophenyl)methyl]-2,3-dioxopropyl}-2-(3-phenyl-1H-pyrazol-1-yl)pyridine-3-carboxamide]",,++ (++ means a Ki(cathepsin B)/Ki(calpain) ratio of ≧30),++ (++ means a Ki(cathepsin L)/Ki(calpain) ratio of ≧50),++ (++ means a Ki(cathepsin S)/Ki(calpain) ratio of ≧100)
"CC(C)c1ccc2c(c1)-c1nn(-c3ncccc3C(=O)NC(Cc3ccccc3)C(=O)C(N)=O)cc1CO2 (stereo not shown) [Example 144, N-[3-Amino-2,3-dioxo-1-(phenylmethyl)propyl]-2-[8-(1-methylethyl)chromeno[4,3-c]pyrazol-2(4H)-yl]pyridine-3-carboxamide]",,+ (+ means 10≦Ki(cathepsin B)/Ki(calpain)<30),++ (++ means a Ki(cathepsin L)/Ki(calpain) ratio of ≧50),++ (++ means a Ki(cathepsin S)/Ki(calpain) ratio of ≧100)
